Assays:
[1] = biological target: T1, TDP1 (Homo sapiens, UniProt Q9NUW8); assay: Steady-state kinetic analysis of TDP1 reaction, double-stranded (hairpin) substrate; type: biochemical; conditions: for Ki: Cornish-Bowden method, read-out: Inhibition constant, KI
T1 construct: made in house; host or cells: E. coli
Procedure: (§1) To determine the kinetic parameters: apparent maximum rate of enzymatic reaction (Vmax), Michaelis constant (KM), constant of inhibition (KI), and possible inhibition mechanism, steady-state kinetic experiments were carried out at five fixed concentrations of substrate with variation of inhibitor concentrations. The standard reaction mixtures (200 μl) contained 50 nM, 100 nM, 200 nM, 500 nM or 1000 nM substrate, testable inhibitor, 1.5 nM recombinant human TDP1 and reaction buffer components (50 mM Tris-HCl, pH 8.0, 50 mM NaCl, 7 mM β-mercaptoethanol). After addition of the enzyme, the reaction mixtures were incubated at a constant temperature of 26 °C and measured in a POLARstar OPTIMA fluorimeter, BMG LABTECH, GmbH, to measure fluorescence every 55 s (Ex485/Em520 nm) during the linear phase (data from 0 to 8 min). The initial data (kinetic curves) were obtained in three independent experiments and statistically processed in software OriginPro 8.6.0.
(§2) Values of the inhibition constant (KI) were determined using Cornish–Bowden method. Similar experiments were performed for all seven tested inhibitors on two types of DNA substrates, and the results are shown in Table 4.

[2] = tested on: A-549 cell line (adenocarcinomic human alveolar basal epithelial cells); assay: MTT test, cytotoxicity and combination with topotecan, A-549; type: cell-based; conditions: A-549 cells; for Synergistic coefficient (SC) with topotecan: MTT, inhibitor in combination with topotecan, SC < 1 indicates synergy; for Effect on cytotoxic effect of topotecan (in words): non-toxic inhibitor concentrations
Procedure: (§3) Tumour cell line A549 (adenocarcinomic human alveolar basal epithelial cells) and noncancerous cell line WI-38 (fibroblasts derived from lung tissue of a 3 months gestation […] fetus) were used in cell-based experiments to determine the cytotoxicity of inhibitors and their effect on antitumour drug topotecan using standard MTT test[48]. Cells were incubated in Iscove’s Modified Dulbecco’s Medium (IMDM) supplemented with 10% fetal bovine serum and 40 µg/ml gentamicin, 10 U/ml penicillin, […], 0.25 µg/ml amphotericin at 37 °C and 5% CO2 for 24 h in a CO2 incubator; the optical density of the final solution was measured in the wells of the microplate at 570 nm and 620 nm wavelengths using a MultiScan FC (Thermo Scientific) microplate reader.
(§4) To study the effect of inhibitors on the cytotoxic effect of a well-known antitumour drug, the topotecan of the manufacturer “ACTAVIS GROUP PTC ehf.” was used. First of all, the 50% cytotoxic concentration (CC50) for topotecan and each inhibitor were determined to produce a defined single-agent effect. Second, three independent MTT-tests were performed with each inhibitor in combination with topotecan. Then, the synergistic coefficient (SC) was calculated according to the following formula (2)[49]: (2) SC= CC50 tpc,(+I)/CC50 tpc+CC50 I, (+tpc)/CC50 I,
(§5) CC50 tpc,(+I) and CC50 I,(+tpc) are the concentrations of topotecan and inhibitor used in combination to achieve 50% drug effect. CC50 tpc and CC50 I are the concentrations for single agents to achieve the same effect. SC values of less than, equal to, or more than 1 indicates synergy, additivity, and antagonism, respectively. The results were calculated and statistically processed in Microsoft Excel.

[3] = biological target: T1, TDP1; assay: Fluorescence anisotropy assay of TDP1-DNA substrate complex; type: binding; conditions: 3 nM single-strand oligonucleotide without quencher, 50 nM TDP1
Procedure: Fluorescence anisotropy was measured by using a fluorescent single-strand DNA-oligonucleotide (3 nM) without quencher at the 3′-end in the presence of the inhibitor in different concentrations (Fluorescein control, CFlu = 10^−9 M). Reaction mixtures (200 µl) contained TDP1 buffer (50 mM Tris-HCl, pH 8.0, 50 mM NaCl, 7 mM β-mercaptoethanol), a single-strand DNA-oligonucleotide without quencher (3 nM substrate of TDP1), a testable inhibitor and the purified TDP1 (50 nM). The reactions were incubated at a constant temperature of 26 °C in a POLARstar OPTIMA fluorimeter, BMG LABTECH, GmbH, to measure fluorescence anisotropy every 55 s (Ex482/Em530 nm) during the linear phase (from 0 to 8 min) in two independent experiments.
Fluorescence anisotropy (r) was calculated by using the Equation (1): (1) r = (III–I⊥)/(III+ 2I⊥)
The dependence of the anisotropy on the concentration of the inhibitor was determined using a six-point response curve in two independent experiments and calculated using MARS Data Analysis 2.0 (BMG LABTECH).
To obtain some information about interaction of disaccharide nucleosides with TDP1, anisotropy of the fluorescent DNA substrate was measured. We used single-stranded oligonucleotide without a quencher at the 3′-end in the presence of testable inhibitors at different concentrations.

[4] = biological target: T1, TDP1; assay: Steady-state kinetic analysis of TDP1 reaction, single-stranded substrate; type: biochemical; conditions: for Ki: Cornish-Bowden method, read-out: Inhibition constant, KI
Procedure: as §1
Vmax and KM decrease proportionally (Figure 6(A,B)), which corresponds to the uncompetitive type of inhibition, according to the general equation of the rate of product formation in the Michaelis–Menten kinetics.
as §2

[5] = biological target: T2, SCAN1 (mutant form of TDP1 with H493R substitution) (Homo sapiens, UniProt Q9NUW8, H493R); assay: Fluorescence real-time assay on mutant TDP1 (SCAN1), single-stranded oligonucleotide; type: biochemical
T2 construct: made in house; host or cells: E. coli
Source text: The recombinant tyrosyl-DNA phosphodiesterase 1 and the mutant form of TDP1 with substitution (H493R) were expressed in the E. coli system (plasmids pET16B-TDP1 and pET16B-SCAN1 were provided by Dr. K.W. Caldecott, University of Sussex, United Kingdom and by Dr. S. El-Khamisy, University of Sheffield, United Kingdom) and purified according to the previously described technique.
(§6) Conditions and details for our real-time detection of TDP1 activity using the single-stranded and hairpin fluorescent biosensors were reported in our previous work[47]. Briefly, the approach consists in fluorescence intensity measurement of the reaction of quencher removal from the fluorophore-quencher coupled DNA-oligonucleotide catalysed by TDP1 in the presence of inhibitor and in the absence of it (the control samples contained 1% DMSO). Reaction mixtures (200 µl) contained TDP1 buffer (50 mM Tris-HCl, pH 8.0, 50 mM NaCl, 7 mM β-mercaptoethanol), oligonucleotide (50 nM substrate of TDP1), testable inhibitor and purified TDP1 (1.5 nM). The reactions were incubated at a constant temperature of 26 °C in a POLARstar OPTIMA fluorimeter, BMG LABTECH, GmbH, to measure fluorescence every 55 s (Ex485/Em520 nm) during the linear phase (here data from 0 to 8 min). The average values of half maximal inhibitory concentration (IC50) were determined using an eleven-point concentration response curve in three independent experiments and calculated using MARS Data Analysis 2.0 (BMG LABTECH).
The IC50 values obtained by the fluorescence real-time assay on a single-stranded oligonucleotide (section 3.1) were higher than 100 μM.

[6] = tested on: WI-38 cell line (noncancerous fibroblasts derived from lung tissue); assay: MTT test, cytotoxicity and combination with topotecan, WI-38; type: cell-based, human; conditions: WI-38 non-cancerous cell line
Procedure: as §3, §4, §5

[7] = biological target: T1, TDP1; assay: Real-time fluorescence detection of TDP1 activity, single-stranded FAM/BHQ biosensor; type: biochemical; conditions: for Inhibitory effect on TDP1 activity (in words): single-stranded fluorescent biosensor, primary screening; for IC50: single-stranded fluorescent biosensor 50 nM, TDP1 1.5 nM, 26 °C, read-out: IC50 (half-maximal inhibitory concentration) of TDP1 activity
Procedure: as §6
To discover inhibitors of TDP1 we recently developed original single-stranded and hairpin fluorophore–quencher coupled DNA-biosensors for real-time measurement of TDP1 cleavage activity. The single-stranded substrate is a 16-mer oligonucleotide containing both 5′-FAM fluorophore donor and a quenching 3′-BHQ moiety (Figure 1(A)). When the quencher is removed by TDP1, the fluorescence intensity increases and can be measured by fluorimeter (TDP1 catalysed reaction on biosensor is shown in Figure 3(A). Fluorescence intensity declines in the presence of inhibitor, the resulting curves of the dependence of TDP1 residual activity as a function of the concentration of inhibitors were obtained using 4-parameter logistic regression fit, which was used to calculate IC50 values[47]^,[58].
For primary screening, the effect of a large group of disaccharide nucleosides and their hydrophobic derivatives on human recombinant TDP1 activity has been evaluated by fluorescent method on a single-stranded substrate described above.

[8] = Water solubility (qualitative); type: physicochemical

T2 sequence (Q9NUW8 whole entry H493R): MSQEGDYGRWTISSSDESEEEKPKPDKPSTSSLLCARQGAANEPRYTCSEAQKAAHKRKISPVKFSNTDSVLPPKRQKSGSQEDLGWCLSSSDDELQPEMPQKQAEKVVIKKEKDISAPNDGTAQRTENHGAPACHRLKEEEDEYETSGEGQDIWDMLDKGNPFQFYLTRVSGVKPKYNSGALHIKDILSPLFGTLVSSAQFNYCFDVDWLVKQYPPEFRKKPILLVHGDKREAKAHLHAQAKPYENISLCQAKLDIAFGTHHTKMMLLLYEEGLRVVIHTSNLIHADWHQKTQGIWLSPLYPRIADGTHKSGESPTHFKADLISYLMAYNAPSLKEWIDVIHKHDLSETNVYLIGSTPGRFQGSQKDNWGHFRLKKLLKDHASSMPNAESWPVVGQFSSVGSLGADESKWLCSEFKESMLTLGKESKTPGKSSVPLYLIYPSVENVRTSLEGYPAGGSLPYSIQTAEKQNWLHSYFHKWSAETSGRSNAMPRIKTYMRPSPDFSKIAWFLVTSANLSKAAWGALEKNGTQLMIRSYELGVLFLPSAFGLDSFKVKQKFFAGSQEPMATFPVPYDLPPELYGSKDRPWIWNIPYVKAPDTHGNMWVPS
T1 sequence (Q9NUW8 whole entry): as the sequence (Q9NUW8 whole entry H493R) above, with R493H counted along it

Row | Structure (SMILES) | Type of inhibition [1] | Ki [1] [nM] | Synergistic coefficient (SC) with topotecan [2] | Effect on cytotoxic effect of topotecan (in words) [2] | Change of fluorescence anisotropy with inhibitor concentration [3] | Type of inhibition [4] | Ki [4] [nM] | IC50 [5] [nM] | Synergy with topotecan (in words) [6] | Inhibitory effect on TDP1 activity (in words) [7] | Water solubility (in words) [8] | IC50 [7] [nM]
1 | Cc1cn([C@@H]2O[C@@H]3CO[Si](C(C)C)(C(C)C)O[Si](C(C)C)(C(C)C)O[C@H]3[C@H]2O[C@@H]2O[C@H](COC(=O)c3ccccc3)[C@@H](OC(=O)c3ccccc3)[C@H]2OC(=O)c2ccccc2)c(=O)[nH]c1=O [Compound 7] | Mixed | 300 ± 100 | less than or equal to 0.7 | significant increase of cytotoxic effect of topotecan | significant decrease in the anisotropy | Mixed | 900 ± 300 | > 100000 |  |  |  | 
2 | CC(C)C(=O)Nc1nc2c(ncn2[C@@H]2O[C@@H]3CO[Si](C(C)C)(C(C)C)O[Si](C(C)C)(C(C)C)O[C@H]3[C@H]2O[C@@H]2O[C@H](COC(=O)c3ccccc3)[C@@H](OC(=O)c3ccccc3)[C@H]2OC(=O)c2ccccc2)c(=O)[nH]1 [Compound 11] | Mixed | 300 ± 200 |  | significant increase of cytotoxic effect of topotecan | significant decrease in the anisotropy | Mixed | 200 ± 100 | > 100000 |  |  |  | 
3 | CC(C)C(=O)Nc1nc2c(ncn2[C@@H]2O[C@H](CO)[C@@H](O)[C@H]2O[C@@H]2O[C@H](COC(=O)c3ccccc3)[C@@H](OC(=O)c3ccccc3)[C@H]2OC(=O)c2ccccc2)c(=O)[nH]1 [Compound 10] | Mixed | 3100 ± 300 | less than or equal to 0.7 | significant increase of cytotoxic effect of topotecan | significant decrease in the anisotropy | Mixed | 1700 ± 400 | > 100000 | demonstrated synergy with topotecan |  |  | 
4 | Nc1nc2c(ncn2[C@@H]2O[C@H](CO)[C@@H](O)[C@H]2O[C@@H]2O[C@H](COP(=O)([O-])[O-])[C@@H](O)[C@H]2O)c(=O)[nH]1.[Na+].[Na+] [Compound 9] |  |  |  |  |  |  |  |  |  | not active at all | water-soluble | 
5 | Nc1ncnc2c1ncn2[C@@H]1O[C@H](CO)[C@@H](O)[C@H]1O[C@@H]1O[C@H](COP(=O)([O-])[O-])[C@@H](O)[C@H]1O.[Na+].[Na+] [Compound 3] |  |  |  |  |  |  |  |  |  | low inhibitory effect | water-soluble | 
6 | CC(C)[Si]1(C(C)C)OC[C@H]2O[C@@H](n3cnc4c(NC(=O)c5ccccc5)ncnc43)[C@H](O[C@@H]3O[C@H](COC(=O)c4ccccc4)[C@@H](OC(=O)c4ccccc4)[C@H]3OC(=O)c3ccccc3)[C@@H]2O[Si](C(C)C)(C(C)C)O1 [Compound 4] | Mixed | 200 ± 100 | less than or equal to 0.7 | significant increase of cytotoxic effect of topotecan | significant decrease in the anisotropy | Mixed | 300 ± 100 | > 100000 |  |  |  | 1300 ± 200
7 | Cc1cn([C@@H]2O[C@H](COP(=O)([O-])[O-])[C@@H](O)[C@H]2O[C@@H]2O[C@H](CO)[C@@H](O)[C@H]2O)c(=O)[nH]c1=O.[Na+].[Na+] [Compound 6] | Noncompetitive | 8800 ± 900 |  | significant increase of cytotoxic effect of topotecan | anisotropy remained unchanged | Noncompetitive | 7900 ± 800 | > 100000 |  |  | high water solubility | 18500 ± 800

Source: paper PMC6136360, “Novel group of tyrosyl-DNA-phosphodiesterase 1 inhibitors based on disaccharide nucleosides as drug prototypes for anti-cancer therapy” (Journal of Enzyme Inhibition and Medicinal Chemistry, 2018)
